In PMC3289605, “A Novel G Protein-Coupled Receptor of Schistosoma mansoni (SmGPR-3) Is Activated by Dopamine and Is Widely Expressed in the Nervous System” (PLoS Neglected Tropical Diseases, 2012):
Like-named read-outs stand apart in the source and are kept apart here.

Key:
[1] = target: T1, SmGPR-3 (Schistosoma mansoni, UniProt C4Q8W8); test: cell-based
T1 sequence (C4Q8W8 1-497): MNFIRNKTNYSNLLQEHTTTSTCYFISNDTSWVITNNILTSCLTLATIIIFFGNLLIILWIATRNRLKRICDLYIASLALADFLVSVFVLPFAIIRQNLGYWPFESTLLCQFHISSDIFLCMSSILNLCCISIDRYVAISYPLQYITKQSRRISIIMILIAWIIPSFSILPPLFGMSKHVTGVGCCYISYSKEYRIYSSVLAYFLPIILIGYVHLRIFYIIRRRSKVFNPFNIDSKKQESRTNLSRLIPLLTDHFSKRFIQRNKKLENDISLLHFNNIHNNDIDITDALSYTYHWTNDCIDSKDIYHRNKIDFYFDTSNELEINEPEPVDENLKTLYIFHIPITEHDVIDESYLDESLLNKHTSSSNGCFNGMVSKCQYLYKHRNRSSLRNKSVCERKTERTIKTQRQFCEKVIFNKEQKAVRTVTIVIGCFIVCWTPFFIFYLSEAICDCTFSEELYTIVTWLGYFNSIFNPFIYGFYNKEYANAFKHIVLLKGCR
Excerpt: (§1) The SmGPR-3 coding sequence was sub-cloned between the NcoI/XbaI restriction sites of the yeast expression vector Cp4258 (kindly provided by Dr J. Broach, Princeton University, NJ, USA). The functional expression assay was adapted from the protocol of Wang and colleagues as described, [30]. The receptor was expressed in Saccharomyces cerevisiae strain YEX108 (MATα PFUS1-HIS3 PGPA1-Gαq(41)-GPA1-Gaq(5) can1 far1Δ 1442 his3 leu2 lys2 sst2Δ2 ste14::trp1::LYS2 ste18Δ6-3841 ste3Δ1156 tbt1-1 trp1 ura3; kindly provided by J. Broach, Princeton University, NJ, USA). This strain expresses the HIS3 reporter gene under the control of the FUS1 promoter and contains an integrated copy of a chimeric Gα gene in which the first […] and last five codons of native yeast Gα (GPA1) were replaced with those of human Gαq. […] YPD culture medium (1% yeast extract, 2% peptone and 2% dextrose) was used to culture YEX108 strain, according to standard conditions. The lithium acetate method was performed to transform yeast with either empty Cp4258 vector (mock) or Cp4258/SmGPR-3 expression plasmid, using 200 µl mid-log phase cells, 200 µg carrier single stranded DNA (Invitrogen) and 1 µg plasmid. Positive transformants were selected on synthetic complete (SC) 2% glucose solid medium lacking leucine (SC/leu^−). For agonist assays, single colonies of transformants were cultured overnight in SC/leu^− liquid medium at 250 rpm/30°C. The next day, cells were washed four times in SC 2% glucose liquid medium that lacked both leucine and histidine (SC/leu^−/his^−). Cells were finally resuspended in SC/leu^−/his^− medium supplemented with 50 mM 3-(N-morpholino) propanesulfonic acid (MOPS), pH 6.8 and 1.5 mM 3-Amino-1, 2, 4-Triazole (3-AT). The latter was used to reduce basal growth due to endogenous background signalling as it inhibits the gene product of HIS3 [29]. Aliquots containing approximately 3,000 cells were added to individual wells of a 96-well plate containing test agonist or vehicle plus additional medium for a total reaction volume of 100 µl. The plates were incubated at 30°C for 22–26 h, after which 10 µl of Alamar blue (Invitrogen) was added to each well. The plates were returned to the 30°C incubator until the Alamar blue color started to shift to pink (approximately 1–4 h) and fluorescence (560 nm excitation/590 nm emission) was measured at 30°C every hour up to three hours, using a plate fluorometer (FlexStation II, Molecular Devices, US). Antagonist assays were done in a similar way, except that each well contained 10^−4 M agonist (dopamine) and the antagonist at the specified concentration. Data analyses and dose-response curve fits were performed using Prism v5.0 (GraphPad software Inc.).
Functional expression assays were performed in yeast. […] The full-length SmGPR-3 cDNA was ligated to the Cp4258 vector and the recombinant plasmid was transformed into Saccharomyces cerevisae to test for receptor activity. We used a genetically modified S. cerevisae strain that is designed for GPCR activity assays. The yeast is auxotrophic for histidine and expresses a HIS3 reporter gene under the control of the FUS1 promoter. Activation of a recombinant GPCR in this system increases expression of the HIS3 reporter via the yeast's endogenous pheromone response, which in turn allows the cells to grow in selective histidine-deficient medium. Thus receptor activity can be quantified based on measurements of yeast growth in the selective medium, using a fluorometric Alamar Blue assay. Cells transformed with either empty vector (mock control) or SmGPR-3 were initially tested with all different biogenic amines, each at 2×10^−4 M (Fig. 3A).
Yeast cells transformed with empty plasmid were used as a negative control (mock).

[2] = test system: S. mansoni schistosomula; test: Motor activity of schistosomula in culture (frequency of body length changes); type: cell-based, Schistosoma mansoni; details: for concentration at which significant inhibition of motility was observed: range tested 10^−7 M–10^−4 M
Experimental: 3-day old in vitro transformed schistosomula were placed in individual wells of a 24-well plate (30–40 animals/well) in 300 µl of OPTI-MEM+10% dialyzed serum. Following an adaptation period of 15 min at room temperature, test substances were added at a final concentration of 100 µM or as indicated. Animals were monitored 5 min after drug addition by placing the 24-well plate on a compound microscope (Nikon, SMZ1500) equipped with a digital video camera (QICAM Fast 1394, mono 12 bit, Qimaging) and SimplePCI version 5.2 (Compix Inc.) for image acquisition. Images were obtained at a rate of ≈3 frames/s for a period of 1 minute and the data were analyzed with ImageJ software (version 1.41, NIH, USA). Cultured schistosomula display complex motor behaviours that are dominated by repeated changes in length, both shortening and elongation. To quantify this type of movement, we used the “Fit-Ellipse” command of ImageJ to draw best-fit ellipses of individual animals in each recorded frame. An estimate of body length was obtained by measuring the principal (“major”) axis of each ellipse, using calibrated units (µm), and the frequency of length changes during the observation period was calculated. Any change representing >10% of body length, whether an increase or decrease, was included in the calculation; changes ≤10% were disregarded. Between 12–15 animals were monitored per well and the experiment was repeated a minimum of 3 times. To monitor for possible drug induced toxicity, viability tests were performed routinely using the methylene blue dye exclusion assay described by Gold.
To explore this possibility we tested the effects of several SmGPR-3 agonists and antagonists on the motor activity of intact schistosomula in culture. […] We used a larval stage (schistosomula) instead of adult worms because the larvae are better suited for quantitative measurements of movement. […] To quantitate motor activity, we monitored individual schistosomula in the presence and absence of test substances, using a microscope equipped with a video camera and imaging software. Approximately 180 consecutive frames were recorded for each animal over 1 min of observation and the approximate length of the animal in each frame was measured in calibrated units (µm). […] To quantify the level of motor activity, we repeated experiments at different concentrations of each amine and then calculated the frequency of length changes, both decrease and increase for each individual animal during the 1 min of observation. Mean values were obtained from the average of 12–15 animals/experiment and each experiment was repeated a minimum of 3 times.
Figure 7 Effects of dopamine and related substances on schistosome motility. (A) In vitro transformed 3-day-old schistosomula were incubated with test drug, dopamine (DA) or epinine (EPN), each at (10^−4 M) or vehicle (CT, control). Animals were treated for 5 min at room temperature, after which they were examined with a compound microscope equipped with a digital video camera and SimplePCI (Compix Inc.) for image acquisition. Images were recorded for 1 minute (∼3 frames/second) and an estimate of body length in µm was obtained for each animal in every frame. Each tracing shown is of an individual animal and is representative of 12–15 larvae per experiment and 3–4 independent experiments per treatment.

[3] = target: T1, SmGPR-3; test: cell-based; details: for inhibition of SmGPR-3 activity: highest concentration tested, in the presence of 100 µM DA
Excerpt: as §1
(§2) Next we examined the effects of classical (mammalian) dopaminergic and other BA antagonists on the activity of SmGPR-3. Drugs were tested initially at a single concentration of 100 µM (10 µM in the case of flupenthixol) in the presence of 100 µM DA (Fig. 4A). […] Those drugs that produced significant inhibition (>50%) in the initial screen were subsequently tested at different concentrations to obtain dose response curves (Fig. 4B–F). […] To test this possibility, we repeated the assay in medium supplemented with histidine (100 µM), which enables cell growth irrespective of receptor activation.
Figure 4 Antagonist effects on SmGPR-3 activity. (A) Yeast YEX108 auxotrophic his strain expressing SmGPR-3 was incubated with agonist (DA, 100 µM) and test antagonist or vehicle. Antagonists were tested at 100 µM except for flupenthixol, which was used at 10 µM.

[4] = test system: SmGPR-2; set-up: method as in PMID 20430030; details: cited from earlier work
[5] = test system: Saccharomyces cerevisiae strain YEX108; test: Drug-induced toxicity control: yeast growth in histidine-supplemented medium; type: cell-based; details: medium supplemented with histidine (100 µM); drug-treated cells
Experimental: as §2
Figure 4 Antagonist effects on SmGPR-3 activity. (A) Yeast YEX108 auxotrophic his strain expressing SmGPR-3 was incubated with agonist (DA, 100 µM) and test antagonist or vehicle. Antagonists were tested at 100 µM except for flupenthixol, which was used at 10 µM. The data were normalized relative to the control sample that contained 100 µM DA but no antagonist. To test for drug induced toxicity, assays were repeated in the presence of 100 µM test antagonist in histidine-supplemented (his+) medium, which enables the cell to grow irrespective of receptor activation (His +ve control; see text for details). Abbreviations are as follows: SPIP, spiperone; PROP, propanolol; CLZP, clozapine; BUSP, buspirone; MINS, mianserin; CPRH, cyproheptadine; FLPX, flupenthixol; PRMZ, promethazine; HLRD, haloperidol. […] The error bars are the means ± SEM for 3–4 experiments and at least 2 clones (in triplicates).

[6] = 500 µM, compared to untreated larvae
[7] = drug 100 µM in the presence of 100 µM DA
[8] = each amine at 2×10^−4 M, relative to no drug control
[9] = 50 µM, compared to untreated larvae
[10] = 100 µM, 3-day-old schistosomula, 5 min after drug addition

CNC[C@H](O)c1ccc(O)c(O)c1 [adrenaline]
SmGPR-3 activation by biogenic amine [1]: stimulated SmGPR-3 activity but not to the same extent as dopamine or epinine | effect on motor activity of schistosomula [2, 6]: decrease in motility

CN1CCN(C2=Nc3cc(Cl)ccc3Nc3ccccc32)CC1 [clozapine]
effect on SmGPR-3 activity [3, 7]: modest or no significant inhibition

CN1CCC(=C2c3ccccc3C=Cc3ccccc32)CC1 [cyproheptadine]
inhibition of SmGPR-3 activity [3]: ≈ 70%

NCCc1ccc(O)c(O)c1 [dopamine]
EC50 [1]: 31 µM | SmGPR-3 activation by biogenic amine [1, 8]: selectively activated | effect on motor activity of schistosomula [2, 9]: decrease in motility | effect on motor activity of schistosomula [2, 10]: decreased both the amplitude and frequency of contractions | concentration at which significant inhibition of motility was observed [2]: ≥ 10 µM

CNCCc1ccc(O)c(O)c1 [epinine]
EC50 [1]: 28.5 µM | SmGPR-3 activation by biogenic amine [1, 8]: selectively activated | effect on motor activity of schistosomula [2, 9]: decrease in motility | effect on motor activity of schistosomula [2, 10]: virtual paralysis | concentration at which significant inhibition of motility was observed [2]: ≥ 10 µM

OCCN1CCN(CCC=C2c3ccccc3Sc3ccc(C(F)(F)F)cc32)CC1 [flupenthixol]
inhibition of SmGPR-2 [4]: most potent inhibitors of SmGPR-2 | yeast growth in the presence of histidine (toxicity control) [5]: normal or nearly normal growth | effect on motor activity of schistosomula [2, 9]: significant decrease in motor activity | IC50 [3]: 3.9 µM

O=C(CCCN1CCC(O)(c2ccc(Cl)cc2)CC1)c1ccc(F)cc1 [haloperidol]
yeast growth in the presence of histidine (toxicity control) [5]: normal or nearly normal growth | effect on motor activity of schistosomula [2, 6]: no significant motor effects

CNCC(O)c1ccc(O)c(OC)c1 (stereo not shown) [metanephrine]
SmGPR-3 activation by biogenic amine [1, 8]: stimulated SmGPR-3 activity but not to the same extent as dopamine or epinine | increase in the frequency of body wall movements ([2]; 500 µM): ≈ 3 fold | effect on motor activity of schistosomula [2, 6]: marked hyperactivation

CN1CCN2c3ccccc3Cc3ccccc3C2C1 (stereo not shown) [mianserin]
inhibition of SmGPR-3 activity [3]: ≈ 70%

NC[C@H](O)c1ccc(O)c(O)c1 [noradrenaline]
SmGPR-3 activation by biogenic amine [1, 8]: stimulated SmGPR-3 activity but not to the same extent as dopamine or epinine

CC(CN1c2ccccc2Sc2ccccc21)N(C)C (stereo not shown) [promethazine]
inhibition of SmGPR-2 [4]: most potent inhibitors of SmGPR-2 | yeast growth in the presence of histidine (toxicity control) [5]: normal or nearly normal growth | effect on motor activity of schistosomula [2, 9]: significant decrease in motor activity | IC50 [3]: 28 µM

CC(C)NCC(O)COc1cccc2ccccc12 (stereo not shown) [propranolol]
effect on SmGPR-3 activity [3, 7]: no effect

O=C(CCCN1CCC2(CC1)C(=O)NCN2c1ccccc1)c1ccc(F)cc1 [spiperone]
enhancement of SmGPR-3 activity [3, 7]: ~2 fold
